Non-standard residues stand in square brackets, D forms with d. Residues, ends and D or L forms follow the SMILES beside them. NMeR = CN[C@@H](CCCNC(=N)N)C(=O)O; NMeF = CN[C@@H](Cc1ccccc1)C(=O)O; NMeL = CN[C@@H](CC(C)C)C(=O)O
What was measured:
[1] = target: T1, synthetic peptide fragment corresponding to residues 11 to 25 of the Alzheimer's Aβ peptide (Homo sapiens, UniProt P05067); assay: Thioflavin T fluorescence assay of Aβ peptide fragment aggregation into amyloid fibrils; format: biochemical
T1 construct: synthetic peptide fragment corresponding to residues 11 to 25 of the Alzheimer's Aβ peptide; host or cells: chemical synthesis (synthetic peptide)
Procedure: The capacity of Peptide X (SEQ ID NO:2) to inhibit the aggregation of a synthetic peptide fragment corresponding to residues 11 to 25 of the Alzheimer's Aβ peptide into amyloid fibrils was determined quantitatively using a standard assay based on the amyloid-dependent fluorescence of thioflavin T at 482 nm (Levine, 1993).
Peptide X (SEQ ID NO:2) was dissolved in water to a concentration of 10 mM (about 10 mg/ml). Alzheimer's Aβ peptide fragment, at a concentration of 50 μM (about 0.1 mg/ml) in 50 mM sodium acetate buffer (pH 5.0), was incubated at 25° C. in the absence or presence of Peptide X at concentrations ranging from 100 μM to 1 mM; the aggregation of the Aβ peptide fragment into insoluble β-fibres in the solutions was determined quantitatively after 20 minutes by measuring the fluorescence of […] added thioflavin T at 482 nm using an excitation wavelength of 440 nm.

[2] = Solubility in aqueous solutions; format: physicochemical; details: over a wide range of pH values, completely soluble
Source text: The two positively charged arginine side chains assist the peptide to penetrate cell membranes and the blood-brain barrier by making electrostatic interactions with the negatively charged phosphate head groups of their constituent phospholipid molecules, resulting in the formation of inverted micelles which carry the peptide molecules across these membranes.

[3] = tested on: Aβ peptide; assay: Inhibition of Aβ peptide aggregation into β-sheets (method not described); format: biochemical

Molecule | inhibition at 100 µM ([1]; 100 μM Peptide X, 50 μM Aβ fragment, 50 mM sodium acetate pH 5.0, 25° C., 20 minutes, thioflavin T at 482 nm) | disaggregation of preformed amyloid fibrils ([1]; Peptide X added to the Aβ peptide fragment after incubation) | reduction in Alzheimer's Aβ peptide aggregation (FIG. 6) ([1]; Peptide X concentration of 100 μM) | solubility [2] | solubility ([2]; approximate equivalent of 10 mM) | inhibiting Aβ peptide aggregation into β-sheets [3]
CC(=O)N[C@@H](CCCNC(=N)N)C(=O)N(C)[C@@H](CCCNC(=N)N)C(=O)N[C@@H](CC(C)C)C(=O)N(C)[C@@H](CC(C)C)C(=O)N[C@@H](Cc1ccccc1)C(=O)N(C)[C@@H](Cc1ccccc1)C(N)=O [Peptide X, Nα-acetyl-(L-arginine)-(Nα-methyl-L-arginine)-(L-leucine)-(Nα-methyl-L-leucine)-(L-phenylalanine)-(Nα-methyl-L-phenylalanine)-NH2] (Ac-R[NMeR]L[NMeL]F[NMeF]-NH2) | > 70% | able to disaggregate preformed amyloid fibrils | 70% | ≥ 10 mM | ≥ 10000 µg/mL | 
(L-arginine)-(L-lysine)-(L-valine)-(Nα-methyl-L-phenylalanine)-(L-tyrosine)-(L-threonine)-(L-tryptophan) [Arg-Lys-Val-mePhe-Tyr-Thr-Trp] |  |  |  |  |  | effective

Source: US7125838B1, “Peptides containing N-substituted L-amino acids for preventing β-strand association” (Senexis Limited, priority 1999, dated 2006)
